What all share (assay): DTP human tumour cell line panel, 48 h
For assay [1], the system named is M14.
Assay [2] deals with SF-268.
The subject of assay [3] is SF-295.
Assay [4] concerns SK-OV-3.
Assay [5] relates to CCRF-CEM.
Assay [6] concerns HOP-62.
For assay [7], the system named is OVCAR-4.
The test system of assay [8] is COLO 205.
Assay [9] concerns K562.
Assay [10] has as its system UACC-62.
The subject of assay [11] is HCC 2998.
The test system of assay [12] is SNB-19.
For assay [13], the system named is CAKI-1.
Assay [14] has as its system UO-31.
Assay [15] deals with HCT-116.
In assay [16] the test system is ACHN.
The subject of assay [17] is OVCAR-3.
Assay [18] concerns NCI-H226.
Assay [19] relates to 786-0.

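Tested at 5 concentrations; 48 h exposure; 96-well plates; endpoints linearly interpolated, else capped at highest concentration. At the GI50, growth is halved.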 The source made the active and inactive calls. Cut-off read from the data, not from the text of the source: active = GI50 up to about 1.1 µM and inactive = higher.

For `CC(=O)OC1=C2CC3(C)OC(=O)CC(C)(C)C3=CC=C2C=C(C(C)C)C1=O` (stereo not drawn), the concentration for 50% growth inhibition (GI50) in assay [1] was 0.334 µM (active); in assay [2], 1.05 µM (active); in assay [3], 1.66 µM (inactive); in assay [4], 2.09 µM (inactive); in [5], 0.316 µM (active); in assay [6], 11.4 µM (inactive). The GI50 is 0.299 µM (active) in assay [7]; 0.631 µM (active) in assay [8]; 0.307 µM (active) in assay [9]; 0.268 µM (active) in assay [10]; 0.877 µM (active) in [11]; 1.83 µM (inactive) in assay [12]. The GI50 is 1.56 µM (inactive) in [13]; 1.74 µM (inactive) in assay [14]; 0.41 µM (active) in assay [15]; 0.518 µM (active) in assay [16]; 1.13 µM (inactive) in assay [17]; 1.74 µM (inactive) in assay [18]. Further, the GI50 in assay [19] was 0.203 µM (active).
For `O=c1[nH]c(-c2ccccc2)nc2cc([N+](=O)[O-])c(/C(Cl)=C/c3ccccc3)cc12`, the GI50 in [2] is 29.2 µM (inactive); in assay [3], 20.7 µM (inactive); in assay [4], 27.3 µM (inactive); in [7], 18.3 µM (inactive); in [8] it was 21.5 µM (inactive); in [9], 7.5 µM (inactive). For the same compound, the GI50 in assay [10] was 15.1 µM (inactive); in assay [11], > 100 µM (inactive); in assay [12] it was 41 µM (inactive); in assay [13], 15.1 µM (inactive); in assay [14] it was 99.5 µM (inactive); in assay [15], 21 µM (inactive). Further, the GI50 in [16] is 68.2 µM (inactive); in assay [17], 30 µM (inactive); in assay [18], > 100 µM (inactive); in assay [19] it was 35 µM (inactive).
Take `COc1ccc(/C(Cl)=C(\C=O)c2ccc(OC)cc2)cc1`: the GI50 in assay [1] is > 100 µM (inactive); in [2] it was > 100 µM (inactive); in [3], 59.8 µM (inactive); in assay [4] it was > 100 µM (inactive); in [5], 22.2 µM (inactive); in assay [6] it was > 100 µM (inactive). Also, the GI50 in assay [7] is 48.1 µM (inactive); in assay [9], 63 µM (inactive); in assay [10], > 100 µM (inactive); in assay [11], > 100 µM (inactive); in assay [12], > 100 µM (inactive); in assay [13] it was > 100 µM (inactive). For the same compound, the GI50 in [14] is > 100 µM (inactive); in [15], 61.9 µM (inactive); in [16] it was 84.3 µM (inactive); in assay [17] it was 64.9 µM (inactive); in assay [18] it was > 100 µM (inactive).
As for `CCc1ccc(Nc2cc(=O)[nH]c(=S)n2C)cc1`, the GI50 in [1], in assay [2], in assay [3], in assay [4], in assay [5] and in assay [6] was > 100 µM (inactive) in each case. Besides, the GI50 in [7], in assay [8], in assay [9], in assay [10], in assay [12] and in assay [13] was > 100 µM (inactive) each time. In addition, the GI50 in assay [14], in assay [15], in assay [17], in assay [18] and in [19] was > 100 µM (inactive) each time.
`Nc1n[nH]c(CCCCCCCc2nnc(N)[nH]2)n1`: the GI50 in assay [1], in [2], in [4], in assay [5], in assay [6] and in [7] was > 100 µM (inactive) each time. Moreover, the GI50 in assay [9], in assay [10], in [11], in [12], in assay [14] and in assay [15] was > 100 µM (inactive) in each case. Besides, the GI50 in assay [16] and in [17] was > 100 µM (inactive) in each case.
Regarding `O=[N+]([O-])c1ccc(C2=Nc3ccccc3SC(c3ccccc3)C2)cc1` (stereo not drawn), the GI50 in assay [1] is 19.4 µM (inactive); in [2] it was 24.7 µM (inactive); in [3], 20.2 µM (inactive); in assay [4], 21 µM (inactive); in assay [5] it was 14.7 µM (inactive); in assay [6] it was 20.7 µM (inactive). Moreover, the GI50 in [7] was 14.3 µM (inactive); in assay [8], 17.5 µM (inactive); in assay [9], 15.8 µM (inactive); in assay [10], 13.7 µM (inactive); in assay [11], 15.2 µM (inactive); in [12] it was 17 µM (inactive). Moreover, the GI50 is 17.6 µM (inactive) in assay [13]; 12.9 µM (inactive) in assay [14]; 11.9 µM (inactive) in [15]; 18.2 µM (inactive) in [16]; 21.7 µM (inactive) in assay [18].
For `CC1OC(O)CC(OC(=O)c2ccccc2)C1OC(=O)c1ccccc1` (stereo not drawn), the GI50 in assay [1] was 16.7 µM (inactive); in assay [2], 16.2 µM (inactive); in assay [3], 48 µM (inactive); in [5], 10.3 µM (inactive); in assay [6], 71.6 µM (inactive); in [7], 15.1 µM (inactive). The GI50 in [8] is 27 µM (inactive); in assay [9] it was 16.8 µM (inactive); in assay [10], 16.7 µM (inactive); in [11] it was 43.6 µM (inactive); in [12], 90.4 µM (inactive); in assay [13], 23.3 µM (inactive). Also, the GI50 was 11.3 µM (inactive) in assay [15], 18.2 µM (inactive) in assay [16], 19.1 µM (inactive) in assay [17] and 29.4 µM (inactive) in assay [19].
Take `O=CCCn1[nH]c(=O)ccc1=O`: the GI50 in [1], in [2], in assay [3], in assay [5], in [7] and in [9] was > 100 µM (inactive) each time. The GI50 in assay [10], in [11], in assay [12], in assay [13], in assay [14] and in [15] was > 100 µM (inactive) in each case. Further, the GI50 in [16], in [17], in [18] and in assay [19] was > 100 µM (inactive) each time.
`CCOC(=O)NC(=O)c1cn(CC(=O)NCC(=O)NCC(=O)N2CCN(CCn3c(C)nc(C(N)=O)c3N)CC2)c(=O)[nH]c1=O`: the GI50 in [1], in assay [2], in [3], in assay [4], in [5] and in assay [6] was > 100 µM (inactive) each time. Besides, the GI50 in assay [8], in assay [9], in assay [10], in assay [11], in assay [12] and in assay [13] was > 100 µM (inactive) throughout. Also, the GI50 in assay [14], in [15], in [16] and in assay [19] was > 100 µM (inactive) each time.

A word on the GI50: it is the concentration that inhibits growth by half.

(Values after ChEMBL document CHEMBL1201862, “PubChem BioAssay data set” (2004).)
